Experimental data published in patent US7439223B2, “Nucleophosmin/B23-binding peptide to inhibit tumor growth and regulate transcriptional activity of p53” (Chang Gung University, priority 2005, dated 2008).
Converted amounts (≈) assume the structure as drawn. Values belong to the compound of their own block, whether it stands above or below them. Ends that are not written are not given here.

Tests used:
[1] = system: Ras-3T3 cells; assay: cytotoxic effect of peptides on Ras-3T3 cell viability; format: cell-based; details: for effect on cellular viability: 25 to 400 μM
Experimental: (§1) Regarding the cells and antibodies, MGH-U1 was established from a Grade III bladder transitional cell carcinoma. U1 and Ras-3T3 cells were grown in RPMI 1640 medium supplemented with 10% fetal bovine serum and 1% antibiotics in 5% CO2 humidified incubator at 37° C. The number of viable cells was determined by trypan blue exclusion and counted with a hemocytometer. Antinucleophosmin/B23 mAb, Anti-p53 polyclonal antibody (pAb) and anti-GAPDH were provided.
Rev-NLS (Rev), T-NLS and np-NLS peptides were synthesized. The primary sequences of the peptides and the dissociation constants of their interactions with nucleophosmin/B23 are shown in FIG. 4. Rev, T-NLS, and np-NLS peptides were applied to Ras-3T3 cells in parallel experiments at concentrations ranging from 25 to 400 μM.
In summary a review of the Figures is given. FIGS. 1A-1D, illustrate Nucleophosmin/B23-binding peptide inhibits tumor growth of Ras-3T3 cells and tumors in nude mice. […] After 24 hours of exposure, cells were counted and survival was expressed as the percentage of surviving cells relative to the untreated cells. Data represent means ±standard deviations; n=3. […] The colonies were stained and scored 12 days after seeding and the efficiencies were calculated as the percentage relative to the untreated cells. Values were expressed as the means ± standard deviations for three determinations. […] Mean tumor volume ±standard deviation for each treatment group was plotted (n=5). Statistical differences in tumor volumes were determined by Student's t-test. […] Tumor volumes of Rev- and PBS-treated (control) mice were plotted (n=5). A Student's t-test was used for statistical analysis. Results shown are representative of three independent experiments.

[2] = system: tumors induced by Ras-3T3 cells; assay: nude mouse xenograft assay, intraperitoneal treatment; format: in vivo, nude mice; details: 10 mg/20 g body weight intraperitoneally once daily for 14 days, vs PBS
Experimental: Exponentially growing Ras-3T3 cells were harvested, washed and resuspended in PBS at 3×10^6 cells/ml. Tumor xenografts were established by inoculating one hundred microliters (100 μl) of the cell suspension subcutaneously into the right flanks of the nude mice. To assay the antitumor activity of Rev, T-NLS, and np-NLS peptides, they were administered to tumors as a systemic intraperitoneal or as a local subcutaneous treatment. For intraperitoneal treatment, mice were randomized into 4 groups of 5 animals after grafting.
Animals were treated once daily for 14 days beginning 48 hr after the inoculation of Ras-3T3 cells. […] Three-dimensional measurements were taken with electric caliper and the tumor volumes were calculated using the formula, V=4πxyz/3, where 2x, 2y and 2z were the three perpendicular diameters of the tumor. […] Statistical differences in the tumor volumes were analyzed by the student's t-test. […]
Next, a nude mouse xenograft assay was used to evaluate the antitumor effect of peptides on the growth of tumors induced by Ras-3T3 cells. […] During the course of treatment, tumor growth was monitored daily by caliper measurement.
In summary a review of the Figures is given. […] After 24 hours of exposure, cells were counted and survival was expressed as the percentage of surviving cells relative to the untreated cells. […]

[3] = target: nucleophosmin/B23; details: cited from earlier work
[4] = system: p53; assay: p53 expression level by western blotting in U1 cells; format: cell-based; details: 25-150 μM for 3 hours or 50 μM for 0.2-7 hours
Experimental: p53 protein is known to suppress tumor formation in vivo at least in part through its ability to induce cell death. The susceptibility of tumor cells to induction of cell death by cytotoxic drugs is modulated by p53 in many cases. It is then important for us to test whether the anti-tumor activity of nucleophosmin/B23-binding peptide is mediated through a p53 dependent regulation. […] The expression levels of p53 were measured by western blotting. […] In parallel, we transfected cells with a plasmid containing the luciferase reporter gene under the control of an artificial p53 target promoter (pGL13). […] Moreover, we analyzed whether the level of p53 changes upon siRNA mediated reduction of the intracellular amount of nucleophosmin/B23. […]
(§2) FIGS. 3A-3F illustrate Nucleophosmin/B23 regulates the increase in protein expression of p53. […] Total cell lysates were analyzed by western immunoblotting using antibodies specific for p53 and GAPDH. […] Total cell lysates were analyzed by Western immunoblotting using antibodies specific for nucleophosmin/B23, p53 and GAPDH. […] After 3 hours, cells were harvested and were analyzed by Western immunoblotting using antibodies specific for p53 and GAPDH. […] The cell extracts containing equal amounts of proteins were analyzed for CAT activity and luciferase activities. […]

[5] = system: p53; assay: p53-dependent luciferase reporter (pGL13) in U1 cells; format: cell-based; details: 50-150 μM for 3 hours
Excerpt: pp53-TA-Luc contains a p53 response element, located upstream of the minimal TA promoter, the TATA box from the herpes simplex virus thymidine kinase promoter (PTA). Located downstream of PTA is the firefly luciferase reporter gene. Double stranded siRNA oligonucleotides against B23, siB23-297 (sense: 5′-[…]; and antisense: […]), and siB23-191 (sense 5′-[…] and antisense: […]) were synthesized. Two oligonucleotides were annealed and cloned into pSilencer™ siRNA expression vector by EcoR1 and Apa1.
Transfections were performed using Lipofectamine™ Reagent method. Before transfection, cells (2×10^5 per well) were seeded in 6-well plates overnight. […]
p53 protein is known to suppress tumor formation in vivo at least in part through its ability to induce cell death. […] The expression levels of p53 were measured by western blotting. […] Moreover, we analyzed whether the level of p53 changes upon siRNA mediated reduction of the intracellular amount of nucleophosmin/B23. […]
FIGS. 3A-3F illustrate Nucleophosmin/B23 regulates the increase in protein expression of p53. […] Total cell lysates were analyzed by western immunoblotting using antibodies specific for p53 and GAPDH. […] Total cell lysates were analyzed by Western immunoblotting using antibodies specific for nucleophosmin/B23, p53 and GAPDH. […] The cell extracts containing equal amounts of proteins were analyzed for CAT activity and luciferase activities. […]

[6] = system: nucleophosmin/B23 over-expressed cells; assay: cytotoxic effect on nucleophosmin/B23 over-expressed cells
[7] = system: U1 bladder cancer cells; assay: U1 bladder cancer cell viability; format: cell-based; details: 24 hr, alone, read-out: concentration required to produce a 50% decrease in cell viability
Experimental: as §1
U1 (3×10^5) cells were treated with doxorubicin (DOX, 0.032-1.0 μg/ml). […] After 24 hr of exposure, cells were counted and survival was expressed as the percentage of surviving cells relative to the untreated cells. […] The relative tumor volumes were expressed as percentages of the initial volumes at first day of treatments. *p<0.05, as compared with control mice. […]
as §2

[8] = system: Ras-3T3 cells; assay: tumor growth in nude mice, DOX, Rev or DOX+Rev subcutaneously adjacent to the tumors; format: in vivo; details: 20 μg/20 g body weight subcutaneously adjacent to the tumors daily for 5 days
Experimental: Doxorubicin (DOX), an anthracycline anti-tumor antibiotic, is active against a number of human cancers.
U1 (3×10^5) cells were treated with doxorubicin (DOX, 0.032-1.0 μg/ml). […] After 24 hr of exposure, cells were counted and survival was expressed as the percentage of surviving cells relative to the untreated cells. Data represent means ±standard deviations; n=3. In FIG. 2D, each mouse was inoculated with 3×10^5 Ras-3T3 cells (one site/mouse). […] Tumor volumes of DOX (20 μg/20 g body weight), Rev (1 mg/20 g body weight), DOX (10 μg/20 g body weight)+Rev (0.5 mg/20 g body weight) and PBS-treated (control) mice were plotted (n=5). The relative tumor volumes were expressed as percentages of the initial volumes at first day of treatments. *p<0.05, as compared with control mice. A Student's t-test was used for statistical analysis. Results shown are representative of three independent experiments.

Compound: PKKKRKVEDPYC [T-NLS, PKKKRKVE DPYC]
effect on cellular viability [1]: little or virtually no effect
IC50 ([1]; read-out: concentration at which there was a 50% decrease in cell viability): ~1000 µM
inhibition of tumor growth [2]: 63.6%
Kd ([3]; read-out: kd of interaction with nucleophosmin/B23): 0.824 µM

Compound: KRPAATKKAGQAKKKKYC (listed as Homo sapiens) [np-NLS]
effect on cellular viability [1]: little or virtually no effect
activity against cells ([1]; at 1 mM (data not shown)): no activity
inhibition of tumor growth [2]: No inhibition of tumor growth
intracellular amount of p53 (protein expression) [4]: No such increases
increase in p53-dependent transcription from the pGL13 promoter [5]: No such increases
binding affinity toward nucleophosmin/B23 ([3]; in words): no binding affinity

Compound: ARRNRRRRWREYC-NH2 [Rev peptide]
dose needed to exert similar cytotoxic effect [6]: higher doses

IC50 [7]: 0.08 µg/mL (≈ 0.147 µM)
Compound: COc1cccc2c1C(=O)c1c(O)c3c(c(O)c1C2=O)C[C@@](O)(C(=O)CO)C[C@@H]3O[C@H]1C[C@H](N)[C@H](O)[C@H](C)O1 [DOX, Doxorubicin]
tumor growth versus PBS control [8]: grew more slowly
